From EP4635488A1, “PHARMACEUTICAL COMPOSITION FOR PREVENTING OR TREATING BONE DISEASES” (Industry Foundation of Chonnam National University, priority 2022, dated 2024)

Tests used:
[1] = test system: RANKL-induced BMM; assay: In vitro osteoclast formation assay (TRAP staining / TRAP activity); type: cell-based, C57/BL6 mice
Description: (§1) Bone marrow cells (BMC) were obtained from 8-week-old female C57/BL6 mice by washing femurs and tibias with α-MEM. BMCs were then cultured overnight in full α-MEM containing 10% FBS, 100 U/mL penicillin, and 100 µg/mL streptomycin. Non-attached cells were collected and cultured with M-CSF (30 ng/ mL) for 3 days, and then the attached cells were used as BMM. All animal experiments were approved by Chonnam National University IACUC (approval number: CNU IACUC-YB-2019-49).
(§2) To generate osteoclasts, BMMs were harvested and cultured in a complete medium containing 30 ng/mL M-CSF and 50 ng/mL RANKL with or without compounds for approximately 4 days to obtain mature osteoclasts. Differentiated osteoclasts were fixed with 4% formalin for 15 minutes, and then the cells were stained using a TRAP staining kit. The spread of osteoclast areas could be observed under the microscope. The viability of BMM (1 × 10^4 cells/well) was assessed in a 96-well plate using a cell viability assay kit as previously described.

[2] = test system: BMDMs; assay: Cell viability assay of BMM/BMDMs; type: cell-based, C57/BL6 mice; settings: below 4 µM; 48 hours
Description: as §1, §2

[3] = test system: F-actin belts of mature osteoclasts; assay: F-actin ring immunofluorescence analysis (phalloidin staining); type: cell-based, C57/BL6 mice
Description: (§3) Bone resorption analysis was performed by a conventional method. Briefly, BMMs (2 × 10^4 cells/well) were seeded into a coated 48-well plate provided in the kit. After culturing with or without the indicated doses of 25-KR-03 and PMSA-3-Ac until mature osteoclasts were observed, 100 µL supernatant was harvested from each well and placed in a black polypropylene 96-well microplate. Fluorescence intensity was measured using a SpectraMax i3x fluorescence plate reader (excitation wavelength 485 nm; emission wavelength 535 nm). The decalcified pit area was visible under a microscope and calculated using ImageJ software. F-actin rings were visible using a rhodamine-coupled phalloidin staining assay (Thermo Fisher Scientific) as previously described.
(§4) In FIG. 4C, the fluorescence intensity of each group after 6 days was measured at excitation and emission wavelengths of 485 nm and 535 nm, respectively. All experiments were repeated three times.

[4] = test system: osteoclast bone resorption; assay: Bone resorption analysis on fluoresceine amine-labeled calcium phosphate plates; type: cell-based, C57/BL6 mice
Description: as §3, §4

[5] = test system: osteoclast-specific genes; assay: Quantitative real-time PCR of osteoclast-specific genes; type: cell-based, C57/BL6 mice; settings: Acp5, NFATc1, DC-STAMP, ATP6V0d2, MMP9 and Ctsk; 0, 1, 2, and 4 days
Excerpt: Total RNA from BMM was isolated using QIAzol RNA lysis reagent (Qiagen Sciences, Valencia, CA, USA).
Specifically, FIGS. 5A to 5F show the results of measuring the relative mRNA levels of the indicated osteoclast-specific genes using qRT-PCR with or without 25-KR-03 treatment for 0, 1, 2, and 4 days. Black bars represent M-CSF and RANKL treatment groups ("Con") and gray bars correspond to 25-KR-03 treatment groups. Transcript levels were normalized to expression at day 0. All experiments were repeated three times.

[6] = test system: NFATc1; assay: Western blotting analysis of osteoclast proteins and NFATc1 nuclear translocation; type: cell-based, C57/BL6 mice
Description: Total protein was extracted from osteoclasts and processed by a conventional method. To obtain total cell lysates, cells were lysed in ice-cold RIPA buffer for 30 min. After measuring the total protein concentration using the Enhanced BCA Protein Assay Kit, the protein was separated using 8-12% SDS-PAGE and transferred to a polyvinylidene fluoride membrane. Next, the membrane was blocked using 5% skim milk and incubated with a primary antibody (1:2,000 dilution) overnight. After incubation with a secondary antibody (1:2,000 dilution) for 1 hour, the membrane was washed and developed using an enhanced chemiluminescence (ECL) buffer as previously described. Relative protein expression was calculated by densitometric analysis using Image J software.
Specifically, in FIG. 6A, immunoblotting was performed for analysis. Culture was performed with or without 25-KR-03 for the indicated days in induction medium. […] GAPDH/LaminB1 was used as a loading control.

[7] = test system: human IPSC-derived macrophages; assay: Human osteoclast differentiation model (TRAP staining / TRAP activity); type: cell-based; settings: 10 days; 50 ng/mL hM-CSF and 100 ng/mL hRANKL
Description: However, it is unclear whether 25-KR-03 has an inhibitory effect on human osteoclast differentiation. Accordingly, a human osteoclast differentiation model was established using human IPSC-derived macrophages. Cells were incubated with 50 ng/mL human M-CSF and 100 ng/mL RANKL to induce mature osteoclast formation.
Specifically, in FIG. 7A, the inhibitory effect of 25-KR-03 on human osteoclast differentiation was analyzed through TRAP staining. Human IPSC-derived macrophages were treated with the indicated concentrations of 25-KR-03 for 10 days in the induction medium containing 50 ng/mL hM-CSF and 100 ng/mL hRANKL. After the formation of multinucleated osteoclasts, TRAP staining was performed to visualize the formed osteoclasts.

[8] = test system: OVX-induced osteoporosis mouse model; assay: OVX-induced osteoporosis mouse model (micro-CT, body weight); type: in vivo, C57BL/6 female mice
Description: Specific pathogen-free facilities were used to grow mice. To investigate the effects of 25-KR-03 in vivo, the inventors established an OVX-induced osteoporosis mouse model as previously described. Seven-week-old C57BL/6 female mice were divided into four groups (Sham, OVX, 25-KR-03, and PMSA-3-Ac). Among them, the OVX, 25-KR-03, and PMSA-3-Ac groups underwent OVX surgery.
After a 1-week recovery period, mice were intraperitoneally injected with 25-KR-03 or PMSA-3-Ac (20 mg/kg, dissolved in a mixture of 10 % Tween 80 and 10% DMSO) once daily for 4 weeks. The sham and control (OVX) groups received equal volumes of the mixture of 10 % Tween 80 and 10% DMSO once daily for 4 weeks. Body weights of the mice were measured weekly. When the mice were euthanized, the femurs were isolated and fixed in 4.0% paraformaldehyde for micro-computed tomography (micro-CT) analysis as previously performed.
Micro-CT scanning was performed as in previous studies. The Quantum GX Micro-CT imaging system (PerkinElmer, Hopkinton, MA, USA) was used at the Korea Basic Science Institute (Gwangju, Korea).

## COC(=O)c1cccc(NCC(=O)Nc2ccccc2Sc2ccccc2)c1 [Compound 25-KR-03, Methyl 3-((2-oxo-2-((2-(phenylthio)phenyl)amino)ethyl)amino)benzoate]
[1]; 2 µM, TRAP staining
  inhibitory effect on osteoclast differentiation: almost complete inhibition
[1]; Mus musculus, 1 µM, osteoclast differentiation in RANKL-induced BMM, mean ± SD from at least three experiments, read-out: Inhibition rate (%)
  inhibition at 1 µM: 72.3 ± 6.33%
[1]; Mus musculus, 2 µM, osteoclast differentiation in RANKL-induced BMM, mean ± SD from at least three experiments, read-out: Inhibition rate (%)
  inhibition at 2 µM: 99.89 ± 0.04%
[1]; Mus musculus, Differentiation of BMDM, based on TRAP activity, 0 to 4000 nM
  IC50: 0.323 µM
[1]; RANKL-induced, concentration range up to 4000 nM
  formation of multinucleated mature osteoclasts: completely blocked
[2]
  cell viability of BMDMs: no significant effect
[3]; at the indicated doses, RANKL/M-CSF-induced
  actin ring formation: inhibited
[3]; versus PMSA-3-Ac (10 µM)
  osteoclast F-actin belt formation, inhibition compared with control inhibitor: more strongly than PMSA-3-Ac
[4]; 0.5, 1, and 2 µM, M-CSF and RANKL, 6 days
  resorption pit area: significantly reduced
[4]; dose-dependent manner, 6 days, excitation 485 nm, emission 535 nm
  fluorescence intensity: reduced
[4]; versus PMSA-3-Ac
  bone resorption inhibition compared with control inhibitor: more effective than PMSA-3-Ac
[5]
  relative mRNA expression levels of RANKL-induced osteoclastogenesis-related genes: obviously decreased
[6]; BMDMs, 48 hours
  NFATc1 protein levels in the nucleus: significantly reduced
[6]; BMDMs, 48 hours, not significant
  NFATc1 protein levels in the cytoplasm: slightly increased
[6]; Western blotting
  protein expression of Ctsk: significantly inhibited
[6]; Western blotting, compared to the control group
  protein expression of NFATc1, Traf6, c-src, GSK3β and calcineurin A: no significant effect
[7]
  inhibitory effect on human osteoclast differentiation: has bioactivity in both mouse and human cells
[8]; 20 mg/kg intraperitoneally once daily for 4 weeks after surgery, compared with the OVX group
  prevention of bone loss (Tb.Th and BMD values, micro-CT of femur): slight but significant prevention of bone loss
[8]; 20 mg/kg intraperitoneally once daily, 4 weeks
  body weight: no significant weight reduction
